Measurements from PubChem BioAssay (NCI).
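Briefly, cells in 96-well plates were exposed to five compound concentrations for 48 h, and endpoints were estimated by linear interpolation. GI50 marks 50% less growth. TGI denotes the concentration required for complete inhibition of growth.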

Experiments:
Experiment in all cases: NCI anticancer screen, dose series, 48 h
[1] = test system: HCT-15 colon
[2] = test system: HCC-2998 colon
[3] = test system: SF-268 CNS
[4] = test system: NCI-H226 lung
[5] = test system: MDA-MB-231 breast
[6] = test system: NCI/ADR-RES ovarian
[7] = test system: COLO 205 colon
[8] = test system: NCI-H460 lung
[9] = test system: RPMI-8226 leukemia
[10] = test system: SW-620 colon
[11] = test system: CAKI-1 renal
[12] = test system: IGROV1 ovarian
[13] = test system: UO-31 renal
[14] = test system: K-562 leukemia
[15] = test system: 786-0 renal
[16] = test system: OVCAR-4 ovarian
[17] = test system: NCI-H522 lung
[18] = test system: MDA-MB-435
[19] = test system: SK-MEL-28 melanoma
[20] = test system: BT-549 breast
[21] = test system: SK-OV-3 ovarian
[22] = test system: SK-MEL-5 melanoma
[23] = test system: A498 renal
[24] = test system: SN12C renal
[25] = test system: HOP-92 NSCLC
[26] = test system: T-47D breast
[27] = test system: SNB-19 CNS
[28] = test system: HOP-62 NSCLC
[29] = test system: ACHN renal
[30] = test system: CCRF-CEM leukemia
[31] = test system: OVCAR-3 ovarian
[32] = test system: SNB-75 CNS
[33] = test system: MOLT-4 leukemia
[34] = test system: SF-295 CNS
[35] = test system: HS 578T breast
[36] = test system: OVCAR-5 ovarian
[37] = test system: MCF7 breast
[38] = test system: U251 CNS
[39] = test system: UACC-257 melanoma
[40] = test system: MALME-3M melanoma
[41] = test system: EKVX NSCLC
[42] = test system: PC-3 prostate
[43] = test system: RXF 393 renal
[44] = test system: MDA-MB-468 breast
[45] = test system: HL-60(TB) leukemia
[46] = test system: LOX IMVI melanoma
[47] = test system: HCT-116 colon
[48] = test system: OVCAR-8 ovarian
[49] = test system: DU-145 prostate
[50] = test system: NCI-H23 lung
[51] = test system: SK-MEL-2 melanoma
[52] = test system: SR leukemia
[53] = test system: HT29 colon
[54] = test system: UACC-62 melanoma
[55] = test system: SF-539 CNS
[56] = test system: A549 NSCLC
[57] = test system: TK-10 renal
[58] = test system: M14 melanoma
[59] = test system: KM12 colon

CC1(C)CC[C@]2(C(=O)N3CCOCC3)CC[C@]3(C)C(=CC[C@@H]4[C@@]5(C)CC[C@H](NCO)C(C)(C)[C@@H]5CC[C@]43C)[C@H]2C1
GI50 [1]: 0.715 µM
TGI [1]: 1.76 µM
GI50 [2]: 0.836 µM
TGI [2]: 2.31 µM
GI50 [3]: 4.78 µM
TGI [3]: 10.4 µM
GI50 [4]: 6.61 µM
TGI [4]: 13.6 µM
GI50 [5]: 1.83 µM
TGI [5]: 5.89 µM
GI50 [6]: 1.99 µM
TGI [6]: 7.09 µM
GI50 [7]: 0.795 µM
TGI [7]: 1.99 µM
GI50 [8]: 1.02 µM
TGI [8]: 3.29 µM
GI50 [9]: 1.42 µM
TGI [9]: 7.17 µM
GI50 [10]: 0.552 µM
TGI [10]: 1.06 µM
GI50 [11]: 0.915 µM
TGI [11]: 2.98 µM
GI50 [12]: 4.66 µM
TGI [12]: 9.78 µM
GI50 [13]: 4.62 µM
TGI [13]: 9.34 µM
GI50 [14]: 0.811 µM
TGI [14]: 33.8 µM
GI50 [15]: 0.596 µM
TGI [15]: 1.31 µM
GI50 [16]: 2.5 µM
TGI [16]: 7.62 µM
GI50 [17]: 6.27 µM
TGI [17]: 13.8 µM
GI50 [18]: 0.998 µM
TGI [18]: 5.1 µM
GI50 [19]: 5.16 µM
TGI [19]: 9.94 µM
GI50 [20]: 6.38 µM
TGI [20]: 12.9 µM
GI50 [21]: 6.81 µM
TGI [21]: 13.3 µM
GI50 [22]: 5.65 µM
TGI [22]: 11 µM
GI50 [23]: 5.59 µM
TGI [23]: 10.9 µM
GI50 [24]: 2.36 µM
TGI [24]: 6.94 µM
GI50 [25]: 5.25 µM
TGI [25]: 11.3 µM
GI50 [26]: 5.33 µM
TGI [26]: 15.6 µM
GI50 [27]: 5.71 µM
TGI [27]: 11.3 µM
GI50 [28]: 8.18 µM
TGI [28]: 18.6 µM
GI50 [29]: 1.72 µM
TGI [29]: 6.11 µM
GI50 [30]: 1.04 µM
TGI [30]: 3.23 µM
GI50 [31]: 0.961 µM
TGI [31]: 3.43 µM
GI50 [32]: 4.39 µM
TGI [32]: 9.51 µM
GI50 [33]: 0.767 µM
TGI [33]: 2.68 µM
GI50 [34]: 1.86 µM
TGI [34]: 6.7 µM
GI50 [35]: 5.22 µM
TGI [35]: 12.5 µM
GI50 [36]: 4.47 µM
TGI [36]: 9.1 µM
GI50 [37]: 0.73 µM
TGI [37]: 2.06 µM
GI50 [38]: 4.14 µM
TGI [38]: 9.49 µM
GI50 [39]: 5.65 µM
TGI [39]: 10.7 µM
GI50 [40]: 5.2 µM
TGI [40]: 9.97 µM
GI50 [41]: 4.57 µM
TGI [41]: 10 µM
GI50 [42]: 4.6 µM
TGI [42]: 10.6 µM
GI50 [43]: 0.886 µM
TGI [43]: 2.69 µM
GI50 [44]: 0.647 µM
TGI [44]: 1.4 µM
GI50 [45]: 0.484 µM
TGI [45]: 1.22 µM
GI50 [46]: 0.576 µM
TGI [46]: 1.06 µM
GI50 [47]: 0.696 µM
TGI [47]: 1.58 µM
GI50 [48]: 1.52 µM
TGI [48]: 6.3 µM
GI50 [49]: 1.38 µM
TGI [49]: 5.01 µM
GI50 [50]: 3.74 µM
TGI [50]: 8.72 µM
GI50 [51]: 5.95 µM
TGI [51]: 11.4 µM
GI50 [52]: 0.682 µM
TGI [52]: 2.14 µM
GI50 [53]: 1.96 µM
TGI [53]: 18.6 µM
GI50 [54]: 5.86 µM
TGI [54]: 10.7 µM
GI50 [55]: 1.12 µM
TGI [55]: 4.29 µM
GI50 [56]: 1.58 µM
TGI [56]: 7.01 µM
GI50 [57]: 7.05 µM
TGI [57]: 13.5 µM
GI50 [58]: 4.11 µM
TGI [58]: 9.71 µM
GI50 [59]: 1.14 µM
TGI [59]: 4.26 µM

COc1cccc2nc(Nc3cccc(NC(=O)c4ccc(CN5CCN(C)CC5)c(C(F)(F)F)c4)c3)ccc12
GI50 [1]: 1.78 µM
TGI [1]: 3.56 µM
GI50 [2]: 1.99 µM
TGI [2]: 3.45 µM
GI50 [3]: 1.69 µM
TGI [3]: 3.75 µM
GI50 [4]: 4.63 µM
TGI [4]: 15.8 µM
GI50 [5]: 1.77 µM
TGI [5]: 3.39 µM
GI50 [6]: 2.28 µM
TGI [6]: 5.95 µM
GI50 [7]: 1.79 µM
TGI [7]: 3.38 µM
GI50 [8]: 1.71 µM
TGI [8]: 3.19 µM
GI50 [9]: 2.78 µM
TGI [9]: 8.34 µM
GI50 [10]: 1.73 µM
TGI [10]: 3.27 µM
GI50 [11]: 1.81 µM
TGI [11]: 4.13 µM
GI50 [12]: 2.25 µM
TGI [12]: 4.82 µM
GI50 [13]: 1.64 µM
TGI [13]: 3.18 µM
GI50 [14]: 2.7 µM
TGI [14]: > 100 µM
GI50 [16]: 2.21 µM
TGI [16]: 5.94 µM
GI50 [17]: 1.79 µM
TGI [17]: 3.65 µM
GI50 [18]: 1.68 µM
TGI [18]: 3.21 µM
GI50 [19]: 1.71 µM
TGI [19]: 3.13 µM
GI50 [20]: 7.01 µM
TGI [20]: 19.2 µM
GI50 [21]: 9.22 µM
TGI [21]: 22.6 µM
GI50 [22]: 1.62 µM
TGI [22]: 3.02 µM
GI50 [23]: 2 µM
TGI [23]: 4.98 µM
GI50 [24]: 1.71 µM
TGI [24]: 3.3 µM
GI50 [25]: 1.5 µM
TGI [25]: 3.86 µM
GI50 [26]: 2.28 µM
TGI [26]: 5.78 µM
GI50 [27]: 1.78 µM
TGI [27]: 3.38 µM
GI50 [28]: 1.56 µM
TGI [28]: 3.11 µM
GI50 [29]: 2.05 µM
TGI [29]: 4.4 µM
GI50 [30]: 2.1 µM
TGI [30]: 6.43 µM
GI50 [31]: 2.15 µM
TGI [31]: 5.17 µM
GI50 [32]: 1.6 µM
TGI [32]: 4.37 µM
GI50 [33]: 1.45 µM
TGI [33]: 7.59 µM
GI50 [34]: 1.77 µM
TGI [34]: 3.31 µM
GI50 [35]: 1.84 µM
TGI [35]: 4.57 µM
GI50 [36]: 1.84 µM
TGI [36]: 3.71 µM
GI50 [37]: 1.57 µM
TGI [37]: 3.2 µM
GI50 [38]: 1.92 µM
TGI [38]: 3.71 µM
GI50 [39]: 1.98 µM
TGI [39]: 3.85 µM
GI50 [40]: 1.65 µM
TGI [40]: 3.08 µM
GI50 [41]: 2.1 µM
TGI [41]: 4.71 µM
GI50 [42]: 1.7 µM
TGI [42]: 4.46 µM
GI50 [43]: 1.73 µM
TGI [43]: 3.96 µM
GI50 [44]: 1.92 µM
TGI [44]: 3.89 µM
GI50 [45]: 1.22 µM
TGI [45]: 4.09 µM
GI50 [46]: 1.74 µM
TGI [46]: 3.26 µM
GI50 [47]: 1.82 µM
TGI [47]: 3.57 µM
GI50 [48]: 3.09 µM
TGI [48]: 10.7 µM
GI50 [49]: 1.98 µM
TGI [49]: 4.42 µM
GI50 [50]: 1.91 µM
TGI [50]: 3.73 µM
GI50 [51]: 3.52 µM
TGI [51]: 12.2 µM
GI50 [52]: 1.85 µM
TGI [52]: 5.65 µM
GI50 [54]: 1.75 µM
TGI [54]: 3.22 µM
GI50 [55]: 1.64 µM
TGI [55]: 3.01 µM
GI50 [56]: 2.44 µM
TGI [56]: 7.8 µM
GI50 [57]: 2.15 µM
TGI [57]: 4.65 µM
GI50 [58]: 1.76 µM
TGI [58]: 3.63 µM
GI50 [59]: 2.13 µM
TGI [59]: 4.59 µM
